# According to patent publication US20240050585A1, “B7-H4-TARGETED ANTIBODY-DRUG CONJUGATES FOR THE TREATMENT OF CANCER” (priority 2022, published 2024):
# Experiments:
# [1] = test system: OV2423 patient derived ovarian cancer; test: Tumor growth response in OV2423 patient derived ovarian cancer xenograft mouse model; conditions: 4.54/0.150 mg/kg (antibody/payload) intravenously on day 1; Day 22; female BALB/c nude mice
# Procedure: Female BALB/c nude mice were implanted subcutaneously with OV2423 patient derived ovarian cancer tumor fragments (˜2-3 mm^3 per mouse). Animals were randomized into treatment groups when tumor volumes were between 101-230 mm^3 (mean=155mm^3/group) (n=8/group). Vehicle, palivizumab isotype control conjugate (prepared as described in US Patent Application No. 2022/0233707A1, 4.54/0.150 mg/kg) and XMT-1660 (4.61/0.150 mg/kg, DAR 6) were dosed intravenously on day 1 (all doses are given by antibody/payload).
# [2] = test system: mBR9013 syngeneic breast cancer; test: Tumor growth response in mBR9013 syngeneic breast cancer mouse model; conditions: for TGI (tumor volume compared to vehicle control): day 15, female FVB/NJ mice
# Procedure: Female FVB/NJ mice were implanted subcutaneously with mBR9013 tumor fragments (2-3 mm^3). Animals were randomized into treatment groups when tumor volumes were between 96-277 mm^3 (mean=148 mm^3/group) (n=8/group). […] Vehicle, isotype control conjugate and XMT-1660 were dosed intravenously.
substance,measurement,setting,value
palivizumab isotype control conjugate,TGI (tumor volume compared to vehicle control),[1],24.8%
same,TGI (tumor volume compared to vehicle control),[2]; 1.51/0.050 mg/kg (antibody/payload) intravenously on day 1,−7.91%
same,TGI (tumor volume compared to vehicle control),[2]; 4.54/0.150 mg/kg (antibody/payload) intravenously on day 1,32.02%
same,body weight loss or clinical observations,"[2]; mouse, in vivo",No significant body weight loss or clinical observations
